Experimental data as given in publication PMC12655351, “Synthesis and Anticancer Activity Evaluation of New 5-((5-Nitrofuran-2-yl)allylidene)-2-thioxo-4-thiazolidinones” (Pharmaceuticals, 2025).
Values joined by “and” are separate entries in the source; they are usually repeats but may differ in a detail not shown here. Equal values may be shown once. Read-outs that look alike come from different tables or passages of the source.

Assays:
MDA-MB-231 = experiment: [3H]-thymidine incorporation assay; type: cell-based; conditions: Homo sapiens; MDA-MB-231, 24 h of treatment
Description: (§1) Another method of assessing the cytotoxic effects of tested compounds, [^3H]-thymidine incorporation assay, was applied. This method provided the capability to analyze the antiproliferative activity of novel structures on MCF-7 and MDA-MB-231 through their ability to incorporate thymidine into the cells. The acquired results further confirmed the potent activity of the 14b compound as the most prominent structure among the novel compounds (Table 2). The test was carried out in triplicate at concentrations of 5, 15, and 30 μM for the MDA-MB-231 cell line and 1, 5, and 10 μM for the MCF-7 cell line.
(§2) Following the selection of cell lines for further study, the effects of all compounds on cell proliferation were evaluated on MCF-7 and MDA-MB-231 cell lines. Cells were seeded in 24-well plates and cultured as described above. Cells were treated with the compounds at concentrations 1, 5, and 10 μM, and 5, 15, and 30 μM for MCF-7 and MDA-MB-231 cell lines, respectively, for 24 h. Subsequently, 0.5 μCi [^3H]-thymidine was added for 4 h at 37 °C. Then, plates with cells were placed on the ice, the liquid was aspirated, and cells were washed twice with 1mL of 0.05 M Tris-HCl buffer comprising 0.11 M NaCl and precipitated by adding 1 mL per well of 5% trichloroacetic. After precipitation, the cells were dissolved with 1 mL of 0.1 M NaOH with 1% SDS (Sigma-Aldrich, St. Louis, MO, USA) at room temperature (RT). The cell lysates were transferred into scintillation vials containing 2 mL of scintillation fluid (Ultima Gold™ XR, PerkinElmer, MA, USA), and cell-associated radioactivity was measured using a Scintillation Counter 1900 TR, TRI-CARB (Packard, Perkin Elmer, Inc., San Jose, CA, USA). The [^3H]-thymidine uptake was expressed as a percentage of the control value.

MCF-7 = experiment: [3H]-thymidine incorporation assay; type: cell-based; conditions: Homo sapiens, MCF7; MCF-7, 24 h of treatment
Description: as §1, §2

HS 578T = experiment: cells; conditions: Homo sapiens, 48 h; for CC50: read-out: LC50
CAKI-1 = experiment: cells; conditions: Homo sapiens, CAKI-1, 48 h
SF-268 [1] = test system: SF-268
MALME-3M = experiment: NCI-60 SRB screen; conditions: 48 h
Leukemia = Leukemia subpanel
[2] = test system: Non-small cell lung cancer; experiment: cells; conditions: Homo sapiens; for GI50: read-out: MG_MID GI50; for CC50: read-out: MG_MID LC50
HOP-92 = experiment: NCI-60 SRB screen; conditions: HOP-92, 48 h
NCI/ADR-RES = experiment: cells; conditions: Homo sapiens, 48 h
TK-10 = experiment: cells; conditions: Homo sapiens, TK-10, 48 h; for CC50: read-out: LC50, TK-10, 48 h
OVCAR-5 = experiment: NCI-60 SRB screen; conditions: for GI50 / TGI: OVCAR-5, 48 h; for growth GP: OVCAR-5, 10 μM, 48 h
SF-268 [3] = experiment: cells; conditions: Homo sapiens, SF-268, 48 h
SNB-19 = experiment: NCI-60 SRB screen; conditions: for GI50 / CC50 / TGI: SNB-19, 48 h; for CC50: read-out: LC50, SNB-19, 48 h
MOLT-4 = experiment: cells; conditions: Homo sapiens, MOLT-4, 48 h
NCI-H23 = experiment: cells; conditions: Homo sapiens, NCI-H23, 48 h; for CC50: read-out: LC50, NCI-H23, 48 h
DU-145 = experiment: cells; conditions: Homo sapiens, DU-145, 48 h; for CC50: read-out: LC50, DU-145, 48 h
SF-539 = conditions: SF-539, 10 μM, 48 h
NCI-H266 = experiment: NCI-60 SRB screen; conditions: for GI50 / TGI: NCI-H266, 48 h; for CC50: read-out: LC50, NCI-H266, 48 h
Renal Cancer = experiment: cells; conditions: Homo sapiens; for GI50: read-out: MG_MID GI50; for CC50: read-out: MG_MID LC50
RPMI-8226 = conditions: RPMI-8226, 48 h
HCT-116 = conditions: HCT-116, 48 h
MDA-MB-231/ATCC = conditions: 10 μM, 48 h
HT29 = experiment: cells; conditions: Homo sapiens, HT-29, 48 h; for GI50: HT29, 48 h
CCRF-CEM [4] = conditions: 48 h
CCRF-CEM [5] = experiment: cells; conditions: Homo sapiens, 48 h
RXF 393 = experiment: NCI-60 SRB screen; conditions: RXF 393, 10 μM, 48 h
[6] = Homo sapiens, read-out: LC50, HOP-92, 48 h

SMILES: CC(C(=O)O)N1C(=O)/C(=C/C=C/c2ccc([N+](=O)[O-])o2)SC1=S (centres unmarked) [2b, 2-((Z)-5-((E)-3-(5-Nitrofuran-2-yl)allylidene)-4-oxo-2-thioxothiazolidin-3-yl)propanoic acid]
- IC50 (MDA-MB-231): 5.56 µM
- IC50 (MCF-7): 6.61 µM

SMILES: O=C(O)CCCCCN1C(=O)/C(=C/C=C/c2ccc([N+](=O)[O-])o2)SC1=S [14b, 6-((Z)-5-((E)-3-(5-nitrofuran-2-yl)allylidene)-4-oxo-2-thioxothiazolidin-3-yl)hexanoic acid]
- GI50 (HS 578T; HS 578T): 1.44 µM
- CC50 (HS 578T): > 100 µM
- GI50 (CAKI-1): 0.83 µM
- GI50 (MDA-MB-435; MDA-MB-435, 48 h): 0.28 µM
- CC50 (MDA-MB-435; human, 48 h): 2.74 µM
- GI50 (SF-268 [1]; SF-268, 48 h): 1.32 µM
- TGI (SF-268 [1]; SF-268, 48 h): 2.71 µM and 3.63 µM
- CC50 (SF-268 [1]; human, 48 h): 9.99 µM
- GI50 (MALME-3M; Homo sapiens, Malme-3M): 0.28 µM
- CC50 (MALME-3M; Homo sapiens, Malme-3M, read-out: LC50, MALME-3M, 48 h): 2.85 µM
- GI50 (MALME-3M; MALME-3M): 0.24 µM
- TGI (MALME-3M; MALME-3M): 0.76 µM and 0.72 µM
- CC50 (MALME-3M; read-out: LC50, MALME-3M): 2.72 µM
- MG_MID TGI (Leukemia): 11.35 µM
- GI50 [2]: 1.48 µM
- CC50 [2]: 21.8 µM
- GI50 (HOP-92): 1.05 µM
- TGI (HOP-92): 3.34 µM and 2.48 µM
- GI50 (HOP-92; Homo sapiens): 1.74 µM
- CC50 (HOP-92; [6]): 6.41 µM
- GI50 (NCI/ADR-RES): 0.45 µM
- GI50 (TK-10): 1.88 µM
- CC50 (TK-10): 5.84 µM
- GI50 (OVCAR-5; Homo sapiens): 1.85 µM
- growth GP (OVCAR-5): -96.01%
- GI50 (OVCAR-5): 1.56 µM
- TGI (OVCAR-5): 3.31 µM and 2.97 µM
- GI50 (SF-268 [3]): 1.26 µM
- CC50 (SF-268 [3]; read-out: LC50, SF-268, 48 h): 5.82 µM
- GI50 (SNB-19; Homo sapiens): 1.76 µM
- CC50 (SNB-19; Homo sapiens): 7.43 µM
- GI50 (SNB-19): 1.45 µM
- TGI (SNB-19): 3.62 µM and 3.11 µM
- GI50 (MOLT-4): 0.37 µM
- IC50 (MDA-MB-231): 1.6 µM
- IC50 (MCF-7): 2.6 µM
- GI50 (NCI-H23): 1.53 µM
- CC50 (NCI-H23): 6.29 µM
- GI50 (DU-145): 1.52 µM
- CC50 (DU-145): 5.44 µM
- growth GP (SF-539): -98.05%
- GI50 (NCI-H266; Homo sapiens, 48 h): 2.21 µM
- CC50 (NCI-H266; Homo sapiens, 48 h): 90.2 µM
- GI50 (NCI-H266): 1.96 µM
- TGI (NCI-H266): 7.06 µM and 7.95 µM
- GI50 (Renal Cancer): 1.98 µM
- CC50 (Renal Cancer): 10.4 µM
- TGI (RPMI-8226): 1.32 µM
- GI50 (HCT-116): 0.2 µM
- growth GP (MDA-MB-231/ATCC): -99.86%
- GI50 (HT29): 1.19 µM
- GI50 (CCRF-CEM [4]): 0.27 µM
- TGI (CCRF-CEM [4]): 0.57 µM and 0.96 µM
- GI50 (CCRF-CEM [5]): 0.18 µM

SMILES: O=C(O)CCCN1C(=O)/C(=C/C=C/c2ccc([N+](=O)[O-])o2)SC1=S [13b, 4-((Z)-5-((E)-3-(5-Nitrofuran-2-yl)allylidene)-4-oxo-2-thioxothiazolidin-3-yl)butanoic acid]
- CC50 (HS 578T): > 100 µM
- GI50 (CAKI-1): 0.67 µM
- TGI (SF-268 [1]; SF-268, 48 h): 2.84 µM and 2.89 µM
- GI50 (MALME-3M; Homo sapiens, Malme-3M): 0.24 µM
- GI50 (MALME-3M; MALME-3M): 0.15 µM
- TGI (MALME-3M; MALME-3M): 0.60 µM and 0.35 µM
- MG_MID TGI (Leukemia): 28.3 µM
- GI50 [2]: 1.21 µM
- CC50 [2]: 24.6 µM
- CC50 (HOP-92; [6]): 6.33 µM
- CC50 (HOP-92; read-out: LC50): 4.24 µM
- GI50 (NCI/ADR-RES): 0.29 µM
- CC50 (TK-10): 5.84 µM
- growth GP (OVCAR-5): -97.64%
- TGI (OVCAR-5): 3.32 µM and 2.02 µM
- CC50 (SNB-19; Homo sapiens): 6.05 µM
- growth GP (SNB-19; SNB-19, 10 μM, 48 h): -96.10%
- TGI (SNB-19): 3.16 µM and 2.10 µM
- growth GP (RXF 393): -97.90%
- GI50 (MOLT-4): 0.41 µM
- CC50 (MOLT-4; read-out: LC50, MOLT-4, 48 h): 8.99 µM
- IC50 (MDA-MB-231): 1.77 µM
- IC50 (MCF-7): 3.97 µM
- CC50 (NCI-H23): 6.24 µM
- GI50 (DU-145): 1.09 µM
- CC50 (DU-145): 4.92 µM
- growth GP (SF-539): -98.91%
- GI50 (NCI-H266; Homo sapiens, 48 h): 2.79 µM
- CC50 (NCI-H266; Homo sapiens, 48 h): 76.1 µM
- GI50 (NCI-H266): 1.65 µM
- TGI (NCI-H266): 11.9 µM and 9.78 µM
- GI50 (Renal Cancer): 0.99 µM
- CC50 (Renal Cancer): 7.48 µM
- TGI (RPMI-8226): 1.58 µM
- GI50 (HCT-116): 0.17 µM
- TGI (HCT-116): 1.15 µM and 0.64 µM
- growth GP (MDA-MB-231/ATCC): -95.61%
- GI50 (HT29): 0.45 µM
- CC50 (HT29; read-out: LC50, HT29, 48 h): 5.44 µM
- GI50 (CCRF-CEM [4]): 0.12 µM
- TGI (CCRF-CEM [4]): 0.82 µM and 0.78 µM
- GI50 (CCRF-CEM [5]): 0.19 µM
